Test results reported in ChEMBL document CHEMBL1129912, “Functionalized azoles and triazolo[1,5-a]pyrimidines as latent leishmanicides” (Bioorg Med Chem Lett, 1997).
pIC50: −log10 of the molar value.

Assays:
Leishmania donovani [1] = experiment: The in vitro leishmanicidal activity by measuring the 3H thymidine incorporation in promastigotes of Leishmania donovani; assay type: functional, organism-based
Leishmania donovani [2] = experiment: The in vitro leishmanicidal activity by measuring the 3H thymidine incorporation in promastigotes of Leishmania donovani at 200 uM concentration; assay type: functional
Leishmania donovani [3] = experiment: The in vitro leishmanicidal activity by measuring the 3H thymidine incorporation in promastigotes of Leishmania donovani at 100 uM concentration; assay type: functional

SMILES: Cc1ccc2nc(NS(=O)(=O)c3ccc(N)cc3)oc2c1
- pIC50 (Leishmania donovani [1]): 4.81
- Growth inhibition (Leishmania donovani [2]): 92.6%

SMILES: O=S(=O)(Nc1nc2nc3c(c(O)n2n1)CCC3)c1ccc(Cl)cc1
- Growth inhibition (Leishmania donovani [2]): 15%

SMILES: O=S(=O)(Nc1nc2nc(-c3ccccc3)cc(-c3ccccc3)n2n1)c1ccc(Cl)cc1
- pIC50 (Leishmania donovani [1]): 5.70
- Growth inhibition (Leishmania donovani [2]): 98%

SMILES: CSc1nc2nc(NS(=O)(=O)c3ccc(Cl)cc3)nn2c(N)c1C#N
- Growth inhibition (Leishmania donovani [2]): 17%

SMILES: Cc1ccc(S(=O)(=O)Nc2nc3nc(C)cc(C)n3n2)cc1
- pIC50 (Leishmania donovani [1]): 5.82
- Growth inhibition (Leishmania donovani [2]): 100%

SMILES: Cc1cc(C)n2nc(NS(=O)(=O)c3ccc(Cl)cc3)nc2n1
- Growth inhibition (Leishmania donovani [2]): 3%

SMILES: Nc1ccc(S(=O)(=O)Nc2nc3ccccc3[nH]2)cc1
- pIC50 (Leishmania donovani [1]): 4.98
- Growth inhibition (Leishmania donovani [2]): 80%

SMILES: Cc1cc(O)n2nc(NS(=O)(=O)c3ccc(Cl)cc3)nc2n1
- Growth inhibition (Leishmania donovani [2]): 5%

SMILES: CCOC(=O)c1cnc2nc(NS(=O)(=O)c3ccc(Cl)cc3)nn2c1N
- Growth inhibition (Leishmania donovani [2]): 0%

SMILES: Nc1n[nH]c(NS(=O)(=O)c2ccccc2)n1
- pIC50 (Leishmania donovani [1]): 5.70
- Growth inhibition (Leishmania donovani [2]): 97%

SMILES: N=C(N)c1ccc(OCCCCCOc2ccc(C(=N)N)cc2)cc1 [PENTAMIDINE]
- Growth inhibition (Leishmania donovani [3]): 100%
- pIC50 (Leishmania donovani [1]): 6.12

SMILES: CCOC(=O)c1cnc2nc(NS(=O)(=O)c3ccc(Cl)cc3)nn2c1O
- Growth inhibition (Leishmania donovani [2]): 0%

SMILES: Nc1ccc(S(=O)(=O)Nc2nc3ccccc3o2)cc1
- pIC50 (Leishmania donovani [1]): 5.19
- Growth inhibition (Leishmania donovani [2]): 74%

SMILES: N#Cc1cnc2nc(NS(=O)(=O)c3ccc(Cl)cc3)nn2c1N
- Growth inhibition (Leishmania donovani [2]): 0%

SMILES: Cc1ccc(S(=O)(=O)Nc2nc3nc(-c4ccccc4)cc(O)n3n2)cc1
- pIC50 (Leishmania donovani [1]): 5.70
- Growth inhibition (Leishmania donovani [2]): 100%
